In BindingDB's records for patent US12240838 (Biogen Ma, 2025):

Molecular target: Tyrosine-protein kinase BTK (Homo sapiens, UniProt Q06187)
Experiment: In Vitro BTK Kinase Assay
Description: The purpose of the BTK in vitro assay is to determine compound potency against BTK through the measurement of IC50. […] For a typical assay, a 24 μL aliquot of a ATP/peptide master mix (final concentration; ATP 10 μM, polyGAT 100 nM) in kinase buffer (10 mM Tris-HCl pH 7.5, 10 mM MgCl2, 200 μM Na3PO4, 5 mM DTT, 0.01% Triton X-100, and 0.2 mg/ml casein) is added to each well. […] The assay is incubated for 30 minutes before being stopped with […] of a 50 mM EDTA solution. […] The plate is covered and incubated for 45 minutes at room temperature.

Chain of Tyrosine-protein kinase BTK (Q06187 whole entry): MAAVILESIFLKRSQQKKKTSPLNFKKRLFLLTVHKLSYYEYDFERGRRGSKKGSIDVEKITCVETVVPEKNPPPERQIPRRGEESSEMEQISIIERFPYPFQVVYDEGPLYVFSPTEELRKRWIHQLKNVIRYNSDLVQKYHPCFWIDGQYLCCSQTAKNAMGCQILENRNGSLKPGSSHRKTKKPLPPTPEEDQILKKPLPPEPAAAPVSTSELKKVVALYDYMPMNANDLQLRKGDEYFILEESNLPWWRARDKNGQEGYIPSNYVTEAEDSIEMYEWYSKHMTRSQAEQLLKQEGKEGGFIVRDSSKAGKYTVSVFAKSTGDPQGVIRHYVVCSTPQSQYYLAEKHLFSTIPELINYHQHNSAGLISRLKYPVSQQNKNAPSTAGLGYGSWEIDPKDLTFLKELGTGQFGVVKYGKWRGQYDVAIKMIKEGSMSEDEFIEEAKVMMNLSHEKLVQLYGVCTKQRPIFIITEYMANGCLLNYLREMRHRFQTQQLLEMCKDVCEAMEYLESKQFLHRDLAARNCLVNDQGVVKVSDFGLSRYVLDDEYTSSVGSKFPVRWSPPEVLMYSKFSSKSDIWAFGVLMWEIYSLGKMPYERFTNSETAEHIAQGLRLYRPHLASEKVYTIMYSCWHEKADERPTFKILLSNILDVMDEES

`CC(C)(C)c1nc(C(=O)NCc2cc(F)c(-c3ccnc(NC(=O)C4CC4)c3)cc2C(F)(F)F)no1` [US12240838, Compound 62] was tested, and the IC50 was less than 1 nM.
